The record followed here is ChEMBL document CHEMBL1142059, “Excelsione, a depsidone from an endophytic fungus isolated from the New Zealand endemic tree Knightia excelsa” (J Nat Prod, 2007).

This data set has as its system P388. The data set can be described thus: Cytotoxicity against mouse P388 cells at 12.5 ug/mL. The data set is classed as cell-based.

`Cc1cc(O)c(CO)c2c1C(=O)Oc1c(C)c3c(c(O)c1O2)C(=O)OC3` [EXCELSIONE]: the Activity result is given as “Not Active”.
